Results taken from patent US10927106B2, “Benzothiazole derivatives as DYRK1 inhibitors” (PHARMASUM THERAPEUTICS AS, priority 2017, dated 2021).

How the values were obtained:
Experiment in all cases: Kinase profiling, 33P ATP filter binding assay
Type in all cases: biochemical
Details in all cases: 1 micromolar inhibitor concentration, read-out: percentage inhibition
p38b MAPK = p38b MAPK (Homo sapiens (Human), UniProt Q15759)
p38d MAPK = p38d MAPK (Homo sapiens (Human), UniProt O15264)
TAK1 = TAK1 (Homo sapiens (Human), UniProt O43318)
JNK3 = JNK3 (Homo sapiens (Human), UniProt P53779)
JNK2 = JNK2 (Homo sapiens (Human), UniProt P45984)
EPH-B2 = EPH-B2 (Homo sapiens (Human), UniProt P29323)
MLK3 = MLK3 (Homo sapiens (Human), UniProt Q16584)
PAK2 = PAK2 (Homo sapiens (Human), UniProt Q13177)
CHK1 = CHK1 (Homo sapiens (Human), UniProt O14757)
MST4 = MST4 (Homo sapiens (Human), UniProt Q9P289)
WNK1 = WNK1 (Homo sapiens (Human), UniProt Q9H4A3)
GCK = GCK (Homo sapiens (Human), UniProt Q12851)
NUAK1 = NUAK1 (Homo sapiens (Human), UniProt O60285)
MAPKAP-K2 = MAPKAP-K2 (Homo sapiens (Human), UniProt P49137)
RSK1 = RSK1 (Homo sapiens (Human), UniProt Q15418)
MSK1 = MSK1 (Homo sapiens (Human), UniProt O75582)
Src = Src (Homo sapiens (Human), UniProt P12931)
TTK = TTK (Homo sapiens (Human), UniProt P33981)
HER4 = HER4 (Homo sapiens (Human), UniProt Q15303)
IR = IR (Homo sapiens (Human), UniProt P06213)
SIK3 = SIK3 (Homo sapiens (Human), UniProt Q9Y2K2)
ZAP70 = ZAP70 (Homo sapiens (Human), UniProt P43403)
SYK = SYK (Homo sapiens (Human), UniProt P43405)
CHK2 = CHK2 (Homo sapiens (Human), UniProt O96017)
ERK1 = ERK1 (Homo sapiens (Human), UniProt P27361)
PIM2 = PIM2 (Homo sapiens (Human), UniProt Q9P1W9)
TBK1 = TBK1 (Homo sapiens (Human), UniProt Q9UHD2)
PIM1 = PIM1 (Homo sapiens (Human), UniProt P11309)
JNK1 = JNK1 (Homo sapiens (Human), UniProt P45983)
CAMKKb = CAMKKb (Homo sapiens (Human), UniProt Q96RR4)
ERK5 = ERK5 (Homo sapiens (Human), UniProt Q13164)
HIPK3 = HIPK3 (Homo sapiens (Human), UniProt Q9H422)
TTBK2 = TTBK2 (Homo sapiens (Human), UniProt Q6IQ55)
Aurora A = Aurora A (Homo sapiens (Human), UniProt O14965)
EPH-A4 = EPH-A4 (Homo sapiens (Human), UniProt P54764)
TSSK1 = TSSK1 (Homo sapiens (Human), UniProt Q9BXA7)
PRK2 = PRK2 (Homo sapiens (Human), UniProt Q16513)
MNK1 = MNK1 (Homo sapiens (Human), UniProt Q9BUB5)
IRR = IRR (Homo sapiens (Human), UniProt P14616)
VEG-FR = VEG-FR (Homo sapiens (Human), UniProt P17948)
EF2K = EF2K (Homo sapiens (Human), UniProt O00418)
FGF-R1 = FGF-R1 (Homo sapiens (Human), UniProt P11362)

Chain of TTK (P33981 whole entry, species assumed): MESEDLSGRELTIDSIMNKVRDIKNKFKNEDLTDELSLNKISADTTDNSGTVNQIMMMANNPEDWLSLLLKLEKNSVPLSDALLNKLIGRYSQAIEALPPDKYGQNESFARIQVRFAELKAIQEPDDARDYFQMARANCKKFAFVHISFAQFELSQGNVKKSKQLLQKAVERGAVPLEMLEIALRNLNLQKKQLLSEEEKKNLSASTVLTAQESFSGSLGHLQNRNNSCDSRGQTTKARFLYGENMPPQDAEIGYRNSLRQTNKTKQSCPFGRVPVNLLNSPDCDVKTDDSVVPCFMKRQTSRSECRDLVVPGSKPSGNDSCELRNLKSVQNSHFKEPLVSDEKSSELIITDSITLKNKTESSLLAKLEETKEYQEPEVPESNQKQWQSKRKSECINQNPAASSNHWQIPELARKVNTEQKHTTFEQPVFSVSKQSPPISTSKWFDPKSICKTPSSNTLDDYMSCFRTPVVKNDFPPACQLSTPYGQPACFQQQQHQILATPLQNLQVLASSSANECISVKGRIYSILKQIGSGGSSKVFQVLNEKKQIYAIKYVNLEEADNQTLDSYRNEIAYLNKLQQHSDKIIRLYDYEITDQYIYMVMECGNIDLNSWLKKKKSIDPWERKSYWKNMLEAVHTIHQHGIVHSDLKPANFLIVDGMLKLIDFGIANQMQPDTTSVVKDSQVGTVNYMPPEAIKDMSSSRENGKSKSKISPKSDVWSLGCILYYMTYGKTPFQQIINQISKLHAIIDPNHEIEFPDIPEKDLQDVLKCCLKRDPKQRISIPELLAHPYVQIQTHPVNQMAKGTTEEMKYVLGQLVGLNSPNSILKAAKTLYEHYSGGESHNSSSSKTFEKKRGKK
Chain of p38b MAPK (Q15759 whole entry): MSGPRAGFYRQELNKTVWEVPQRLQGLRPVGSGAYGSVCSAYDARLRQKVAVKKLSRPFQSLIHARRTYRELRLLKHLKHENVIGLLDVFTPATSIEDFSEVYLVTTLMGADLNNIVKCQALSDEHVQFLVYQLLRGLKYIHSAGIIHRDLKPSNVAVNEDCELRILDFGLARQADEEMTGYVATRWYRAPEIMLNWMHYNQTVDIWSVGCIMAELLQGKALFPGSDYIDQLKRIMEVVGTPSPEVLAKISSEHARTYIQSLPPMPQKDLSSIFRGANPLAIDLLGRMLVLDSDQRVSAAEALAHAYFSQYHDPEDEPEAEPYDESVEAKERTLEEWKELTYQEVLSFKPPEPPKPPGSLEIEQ
Chain of TAK1 (O43318 1-303): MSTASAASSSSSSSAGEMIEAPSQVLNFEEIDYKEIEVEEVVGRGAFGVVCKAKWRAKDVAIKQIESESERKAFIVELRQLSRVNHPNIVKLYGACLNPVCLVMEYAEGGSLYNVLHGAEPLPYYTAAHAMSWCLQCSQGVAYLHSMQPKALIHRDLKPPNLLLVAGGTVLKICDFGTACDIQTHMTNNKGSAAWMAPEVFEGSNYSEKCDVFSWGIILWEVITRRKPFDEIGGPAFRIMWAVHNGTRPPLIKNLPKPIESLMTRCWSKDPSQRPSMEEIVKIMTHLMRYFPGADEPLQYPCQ
Chain of Aurora A (O14965 whole entry): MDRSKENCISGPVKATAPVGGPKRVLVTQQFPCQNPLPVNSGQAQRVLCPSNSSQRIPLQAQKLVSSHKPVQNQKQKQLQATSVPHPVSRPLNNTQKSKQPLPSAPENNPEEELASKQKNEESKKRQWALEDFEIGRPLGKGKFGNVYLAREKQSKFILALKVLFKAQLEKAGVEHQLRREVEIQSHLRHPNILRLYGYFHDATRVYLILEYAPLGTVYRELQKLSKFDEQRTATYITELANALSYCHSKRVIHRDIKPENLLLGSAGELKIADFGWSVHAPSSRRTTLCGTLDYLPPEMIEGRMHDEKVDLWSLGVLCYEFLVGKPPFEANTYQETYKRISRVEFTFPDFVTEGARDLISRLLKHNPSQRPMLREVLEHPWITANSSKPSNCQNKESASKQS
Chain of HIPK3 (Q9H422 whole entry, species assumed): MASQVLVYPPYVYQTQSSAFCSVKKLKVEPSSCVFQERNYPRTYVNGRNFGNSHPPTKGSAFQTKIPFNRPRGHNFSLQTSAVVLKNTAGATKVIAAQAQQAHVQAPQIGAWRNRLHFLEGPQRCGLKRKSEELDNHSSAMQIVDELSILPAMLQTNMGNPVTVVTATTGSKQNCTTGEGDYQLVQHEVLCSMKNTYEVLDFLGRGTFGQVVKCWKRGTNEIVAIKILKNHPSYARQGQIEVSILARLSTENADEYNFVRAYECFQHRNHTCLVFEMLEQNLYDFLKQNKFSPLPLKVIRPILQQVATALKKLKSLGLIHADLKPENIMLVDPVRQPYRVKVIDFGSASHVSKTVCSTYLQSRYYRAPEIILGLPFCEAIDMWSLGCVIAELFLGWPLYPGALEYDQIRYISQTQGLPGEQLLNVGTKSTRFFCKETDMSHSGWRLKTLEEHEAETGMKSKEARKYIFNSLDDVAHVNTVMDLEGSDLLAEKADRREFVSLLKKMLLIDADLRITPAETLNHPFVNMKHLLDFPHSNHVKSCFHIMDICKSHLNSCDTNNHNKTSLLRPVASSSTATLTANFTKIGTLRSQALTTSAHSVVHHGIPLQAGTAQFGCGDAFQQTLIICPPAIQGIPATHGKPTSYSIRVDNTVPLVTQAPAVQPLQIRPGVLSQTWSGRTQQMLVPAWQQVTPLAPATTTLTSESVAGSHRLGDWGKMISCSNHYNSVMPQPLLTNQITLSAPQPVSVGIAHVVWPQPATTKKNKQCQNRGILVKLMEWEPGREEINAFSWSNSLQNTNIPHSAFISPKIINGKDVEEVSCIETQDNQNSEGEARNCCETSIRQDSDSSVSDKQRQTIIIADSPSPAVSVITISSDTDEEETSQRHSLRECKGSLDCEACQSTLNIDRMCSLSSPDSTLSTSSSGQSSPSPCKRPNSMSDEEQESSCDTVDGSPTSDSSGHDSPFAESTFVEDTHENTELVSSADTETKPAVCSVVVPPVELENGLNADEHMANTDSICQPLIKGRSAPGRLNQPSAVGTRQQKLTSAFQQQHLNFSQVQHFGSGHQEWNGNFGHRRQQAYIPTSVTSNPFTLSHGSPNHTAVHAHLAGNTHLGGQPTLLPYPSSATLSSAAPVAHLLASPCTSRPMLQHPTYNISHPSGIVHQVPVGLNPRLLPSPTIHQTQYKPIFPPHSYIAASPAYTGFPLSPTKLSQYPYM
Chain of p38d MAPK (O15264 whole entry): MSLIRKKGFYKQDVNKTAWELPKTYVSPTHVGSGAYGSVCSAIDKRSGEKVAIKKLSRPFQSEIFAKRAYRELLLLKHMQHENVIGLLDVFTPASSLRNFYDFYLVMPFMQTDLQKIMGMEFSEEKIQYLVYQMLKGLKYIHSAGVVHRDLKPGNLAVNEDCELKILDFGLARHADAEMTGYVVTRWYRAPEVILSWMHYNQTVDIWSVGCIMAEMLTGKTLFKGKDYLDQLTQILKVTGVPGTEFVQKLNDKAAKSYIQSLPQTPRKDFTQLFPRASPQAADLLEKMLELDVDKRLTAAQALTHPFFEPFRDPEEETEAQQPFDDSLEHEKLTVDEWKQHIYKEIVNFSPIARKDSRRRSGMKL
Chain of IRR (P14616 27-1297, species assumed): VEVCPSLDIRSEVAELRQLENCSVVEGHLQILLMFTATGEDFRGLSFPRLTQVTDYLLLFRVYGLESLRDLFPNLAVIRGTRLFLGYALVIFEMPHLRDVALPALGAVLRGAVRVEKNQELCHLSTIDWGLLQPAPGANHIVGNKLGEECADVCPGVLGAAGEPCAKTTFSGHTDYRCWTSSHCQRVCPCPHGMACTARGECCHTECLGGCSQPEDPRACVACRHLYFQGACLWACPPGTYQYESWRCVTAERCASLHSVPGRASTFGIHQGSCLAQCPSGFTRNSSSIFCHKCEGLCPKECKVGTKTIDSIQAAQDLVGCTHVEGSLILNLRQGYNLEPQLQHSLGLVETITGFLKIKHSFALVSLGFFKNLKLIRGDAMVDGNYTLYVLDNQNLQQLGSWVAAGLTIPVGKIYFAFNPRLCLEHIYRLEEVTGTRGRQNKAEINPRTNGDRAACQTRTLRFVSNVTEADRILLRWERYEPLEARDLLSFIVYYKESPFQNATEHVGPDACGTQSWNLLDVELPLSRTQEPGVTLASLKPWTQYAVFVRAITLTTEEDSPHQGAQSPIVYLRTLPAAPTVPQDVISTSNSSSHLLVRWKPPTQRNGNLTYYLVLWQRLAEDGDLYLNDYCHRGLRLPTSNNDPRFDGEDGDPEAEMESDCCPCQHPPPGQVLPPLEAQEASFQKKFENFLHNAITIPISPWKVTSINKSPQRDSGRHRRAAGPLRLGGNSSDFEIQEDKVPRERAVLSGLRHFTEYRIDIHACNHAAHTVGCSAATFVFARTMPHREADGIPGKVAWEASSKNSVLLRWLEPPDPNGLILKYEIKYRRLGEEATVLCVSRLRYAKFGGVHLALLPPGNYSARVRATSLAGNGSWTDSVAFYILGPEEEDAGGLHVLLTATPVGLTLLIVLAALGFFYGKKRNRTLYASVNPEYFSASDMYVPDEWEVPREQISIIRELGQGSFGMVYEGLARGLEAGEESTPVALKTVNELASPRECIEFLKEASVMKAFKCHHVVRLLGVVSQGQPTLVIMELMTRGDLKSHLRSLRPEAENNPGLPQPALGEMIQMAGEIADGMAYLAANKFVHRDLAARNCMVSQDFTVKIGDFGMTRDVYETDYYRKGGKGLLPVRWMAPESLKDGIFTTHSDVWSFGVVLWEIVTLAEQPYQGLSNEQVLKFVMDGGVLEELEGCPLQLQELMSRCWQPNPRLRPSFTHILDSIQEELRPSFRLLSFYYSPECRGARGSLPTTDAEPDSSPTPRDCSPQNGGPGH

Work on `CS(=O)(=O)Nc1cncc(-c2nc3cc(O)ccc3s2)c1` [4-99, N-(5-(5-Hydroxybenzo[d]thiazol-2-yl)pyridin-3-yl)methanesulfonamide] yielded an inhibition at 1 µM (p38b MAPK) of 0%, an inhibition at 1 µM (p38d MAPK) of 0% and an inhibition at 1 µM (TAK1) of 8%. It also gave an inhibition at 1 µM (JNK3) of 0%, an inhibition at 1 µM (JNK2) of 0% and an inhibition at 1 µM (EPH-B2) of 0%. The inhibition at 1 µM (MLK3) was 0%, the inhibition at 1 µM (PAK2) was 0% and the inhibition at 1 µM (CHK1) was 0%. The inhibition at 1 µM (MST4) was 0%, the inhibition at 1 µM (WNK1) was 0% and the inhibition at 1 µM (GCK) was 0%. It also gave an inhibition at 1 µM (NUAK1) of 0%, an inhibition at 1 µM (MAPKAP-K2) of 0% and an inhibition at 1 µM (RSK1) of 0%. The inhibition at 1 µM (MSK1) was 0%, the inhibition at 1 µM (Src) was 0% and the inhibition at 1 µM (TTK) was 0%. The inhibition at 1 µM (HER4) was 0%, the inhibition at 1 µM (IR) was 0% and the inhibition at 1 µM (SIK3) was 0%. It also gave an inhibition at 1 µM (ZAP70) of 0%, an inhibition at 1 µM (SYK) of 0% and an inhibition at 1 µM (CHK2) of 0%. It also gave an inhibition at 1 µM (ERK1) of 0%, an inhibition at 1 µM (PIM2) of 0% and an inhibition at 1 µM (TBK1) of 0%. For the same molecule, the inhibition at 1 µM (PIM1) was 0%, the inhibition at 1 µM (JNK1) was 0% and the inhibition at 1 µM (CAMKKb) was 0%. For the same molecule, the inhibition at 1 µM (ERK5) was 7%, the inhibition at 1 µM (HIPK3) was 0% and the inhibition at 1 µM (TTBK2) was 0%. For the same molecule, the inhibition at 1 µM (Aurora A) was 0%, the inhibition at 1 µM (EPH-A4) was 0% and the inhibition at 1 µM (TSSK1) was 0%. It also gave an inhibition at 1 µM (PRK2) of 0%, an inhibition at 1 µM (MNK1) of 0% and an inhibition at 1 µM (IRR) of 0%. For the same molecule, the inhibition at 1 µM (VEG-FR) was 0%, the inhibition at 1 µM (EF2K) was 0% and the inhibition at 1 µM (FGF-R1) was 0%.

For `COc1ccc2sc(-c3cncc(NC(C)=O)c3)nc2c1` [4-93, N-(5-(5-Methoxybenzo[d]thiazol-2-yl)pyridin-3-yl)acetamide], the inhibition at 1 µM (p38b MAPK) was 0%, the inhibition at 1 µM (p38d MAPK) was 0% and the inhibition at 1 µM (TAK1) was 52%. It also gave an inhibition at 1 µM (JNK3) of 0%, an inhibition at 1 µM (JNK2) of 0% and an inhibition at 1 µM (EPH-B2) of 0%. For the same molecule, the inhibition at 1 µM (MLK3) was 0%, the inhibition at 1 µM (PAK2) was 0% and the inhibition at 1 µM (CHK1) was 0%. It also gave an inhibition at 1 µM (MST4) of 0%, an inhibition at 1 µM (WNK1) of 0% and an inhibition at 1 µM (GCK) of 0%. It also gave an inhibition at 1 µM (NUAK1) of 0%, an inhibition at 1 µM (MAPKAP-K2) of 0% and an inhibition at 1 µM (RSK1) of 1%. It also gave an inhibition at 1 µM (MSK1) of 0%, an inhibition at 1 µM (Src) of 0% and an inhibition at 1 µM (TTK) of 12%. The inhibition at 1 µM (HER4) was 0%, the inhibition at 1 µM (IR) was 0% and the inhibition at 1 µM (SIK3) was 0%. The inhibition at 1 µM (ZAP70) was 0%, the inhibition at 1 µM (SYK) was 0% and the inhibition at 1 µM (CHK2) was 0%. It also gave an inhibition at 1 µM (ERK1) of 0%, an inhibition at 1 µM (PIM2) of 0% and an inhibition at 1 µM (TBK1) of 0%. For the same molecule, the inhibition at 1 µM (PIM1) was 2%, the inhibition at 1 µM (JNK1) was 0% and the inhibition at 1 µM (CAMKKb) was 0%. It also gave an inhibition at 1 µM (ERK5) of 28%, an inhibition at 1 µM (HIPK3) of 0% and an inhibition at 1 µM (TTBK2) of 0%. For the same molecule, the inhibition at 1 µM (Aurora A) was 0%, the inhibition at 1 µM (EPH-A4) was 0% and the inhibition at 1 µM (TSSK1) was 0%. For the same molecule, the inhibition at 1 µM (PRK2) was 0%, the inhibition at 1 µM (MNK1) was 0% and the inhibition at 1 µM (IRR) was 0%. The inhibition at 1 µM (VEG-FR) was 0%, the inhibition at 1 µM (EF2K) was 0% and the inhibition at 1 µM (FGF-R1) was 0%.
